The test system of assay [1] is naive hESCs/hiPSCs. The assay is described as follows: Substitution of p38 inhibitor in WIS-NHSM, OCT4-GFP expression. It is filed as cell-based, human. Particulars: used instead of SB203580 in WIS-NHSM.
The subject of assay [2] is naive cells. The assay is described as follows: Pluripotency (Oct4-GFP) after passaging with DNA methylation or EED inhibitors. Particulars: Oct4-GFP reporter. It counts as cell-based, human and mouse.
The target in assay [3] is PKCγ (Homo sapiens, UniProt P05129). The conditions noted are these: read-out: IC50 for PKCy; cited from earlier work.
Assay [4] concerns the target PKCβ (Homo sapiens, UniProt P05771). The conditions noted are these: read-out: IC50 for PKC0; cited from earlier work.
For assay [5], the target named is PKCα (Homo sapiens, UniProt P17252). Particulars: read-out: IC50 for PKCu; cited from earlier work.
For assay [6], the system named is MBD3. The assay is described as follows: Western blot for MBD3 protein expression in V6.5 mouse ES cells after 4 days treatment. The conditions noted are these: 2i/LIF plus agent at 5 micromolar. It counts as cell-based. The source says: FIGS. 1O1A-101B are Western blot analyses showing expression of MBD3 (FIG. 101B) and of HSP90 (FIG. 101A) in v6.5 mouse ES cells after different treatments. V6.5 mouse ES cells were expanded for 4 days in the indicated conditions and subjected to Western blot analysis for MBD3 protein expression. Following are the abbreviations and concentrations of the indicated factors and agents. PBS=phosphate buffered saline; “LIF”=leukemia inhibitory factor, provided at a concentration of 20 nanograms/milliliter (ng/ml); KSR=knockout serum replacement; “2i/LIF”=small-molecule inhibitors CHIR99021 (CH, 3 M—Axon Medchem) and PD0325901 (PD, 1 M—TOCRIS), with 20 ng/ml LIF; “DMSO”=Dimethyl sulfoxide at a concentration of 0.1%; TGFRi (inhibitor of transforming growth factor receptor; SB431542 at 5 micromolar); PKC-i (inhibitor of protein kinase C; Go6983 at 5 micromolar).
V6.5 mouse ES cells were expanded for 4 days in various conditions in order to identify combination of factors which result in reduced MBD3 protein levels.
On the technique in general: In western blotting, separated proteins are transferred to a membrane and probed.

The target of assay [7] is PKCδ (Homo sapiens, UniProt Q05655). The conditions noted are these: read-out: IC50 for PKC6; cited from earlier work.
For assay [8], the target named is T1, PKCζ (Homo sapiens, UniProt Q05513).
T1 sequence (Q05513 1-592): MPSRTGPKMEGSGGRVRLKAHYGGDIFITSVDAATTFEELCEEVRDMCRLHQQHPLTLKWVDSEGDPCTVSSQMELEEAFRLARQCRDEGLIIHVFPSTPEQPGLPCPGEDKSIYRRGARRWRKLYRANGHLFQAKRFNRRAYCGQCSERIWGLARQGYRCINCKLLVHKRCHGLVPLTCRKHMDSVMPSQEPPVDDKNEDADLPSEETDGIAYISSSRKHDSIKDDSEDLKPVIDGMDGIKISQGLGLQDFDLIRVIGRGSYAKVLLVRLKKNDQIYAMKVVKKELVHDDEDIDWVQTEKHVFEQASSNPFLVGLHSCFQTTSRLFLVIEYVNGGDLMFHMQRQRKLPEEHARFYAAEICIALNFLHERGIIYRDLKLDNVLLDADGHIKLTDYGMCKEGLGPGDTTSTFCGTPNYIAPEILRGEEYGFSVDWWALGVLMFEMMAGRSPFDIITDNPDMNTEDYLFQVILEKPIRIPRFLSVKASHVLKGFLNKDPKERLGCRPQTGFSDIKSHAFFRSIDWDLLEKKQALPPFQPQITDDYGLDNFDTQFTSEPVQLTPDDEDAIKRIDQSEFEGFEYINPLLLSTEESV
The conditions noted are these: read-out: IC50 for PKC; cited from earlier work.

Assay [9] has as its target T2, PKCμ (Homo sapiens, UniProt Q15139).
T2 sequence (Q15139 1-912): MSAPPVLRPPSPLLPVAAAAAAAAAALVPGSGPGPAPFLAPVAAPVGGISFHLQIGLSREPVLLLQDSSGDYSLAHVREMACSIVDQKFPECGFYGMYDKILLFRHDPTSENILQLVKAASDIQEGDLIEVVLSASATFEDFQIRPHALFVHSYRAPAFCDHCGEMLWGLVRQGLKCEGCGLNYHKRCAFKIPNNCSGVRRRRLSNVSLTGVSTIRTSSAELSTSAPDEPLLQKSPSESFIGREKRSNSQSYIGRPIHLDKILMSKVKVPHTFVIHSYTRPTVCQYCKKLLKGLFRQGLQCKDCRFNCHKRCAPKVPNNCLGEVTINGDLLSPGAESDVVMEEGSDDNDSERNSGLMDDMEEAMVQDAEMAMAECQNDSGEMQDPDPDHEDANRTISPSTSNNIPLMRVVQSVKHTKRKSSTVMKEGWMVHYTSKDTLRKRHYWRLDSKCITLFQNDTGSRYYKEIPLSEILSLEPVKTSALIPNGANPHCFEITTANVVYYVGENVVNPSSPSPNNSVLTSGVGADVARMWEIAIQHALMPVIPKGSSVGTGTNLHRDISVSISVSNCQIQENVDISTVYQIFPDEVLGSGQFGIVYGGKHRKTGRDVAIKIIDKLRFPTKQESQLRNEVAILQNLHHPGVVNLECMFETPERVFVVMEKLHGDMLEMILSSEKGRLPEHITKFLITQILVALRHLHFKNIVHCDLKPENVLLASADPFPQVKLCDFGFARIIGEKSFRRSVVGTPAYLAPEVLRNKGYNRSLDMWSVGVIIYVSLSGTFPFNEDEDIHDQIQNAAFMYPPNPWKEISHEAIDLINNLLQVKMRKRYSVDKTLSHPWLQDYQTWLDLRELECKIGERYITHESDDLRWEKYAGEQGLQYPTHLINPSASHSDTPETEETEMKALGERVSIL
The conditions noted are these: read-out: IC50 for PKCp; cited from earlier work.

Assay [10] deals with primed hESCs and hiPSCs. The assay is described as follows: Single-cell cloning efficiency, primed cells. It is filed as cell-based, human. The conditions noted are these: in the presence of ROCK inhibitor. An excerpt:
(§1) FIGS. 74A-74D depict enhanced growth rate and single cell cloning efficiency of human naive pluripotent stem cells. FIG. 74A—Population doubling time of various mouse and human pluripotent stem cell lines. After plating each cell lines in replicates, cells were harvested at days 2,4 and 6 and there growth was normalized by counting cell number at each stage and calculating growth rate relative to the number of cells harvested and counted at day 2 (rather than number of plated cells to account for variability in survival after plating). Error bars represent s.d., and P values represent t-test of average from primed hESC/hiPSC lines to average of naive hESC/hiPSC lines. FIG. 74B—Single-cell cloning efficiency of different pluripotent stem cell lines as determined by the number of wells containing NANOG+ colonies 6 days after plating (with or without ROCK inhibitor as indicated in the figure). * indicates student's t-test P value <0.01 between the average of the compared groups. Error bars indicate s.d. […] Single-cell cloning efficiency of different pluripotent stem cell lines as determined by the number of wells containing Nanog+ colonies 6 days after plating (without using ROCK inhibitor as indicated in the figure). * indicates student's t-test P value <0.01 between the average of the compared groups. […]

Assay [11] concerns naive hPSCs. The assay is described as follows: Single-cell cloning efficiency, naive cells. The conditions noted are these: in the presence of ROCK inhibitor. It is filed as cell-based, human.
Excerpt: as §1

For assay [12], the target named is T3, Mbd3 binding to Chd4 (Homo sapiens, UniProt O95983).
T3 construct: expressed in transfected cells; host or cells: 293T cells
T3 sequence (O95983 1-291): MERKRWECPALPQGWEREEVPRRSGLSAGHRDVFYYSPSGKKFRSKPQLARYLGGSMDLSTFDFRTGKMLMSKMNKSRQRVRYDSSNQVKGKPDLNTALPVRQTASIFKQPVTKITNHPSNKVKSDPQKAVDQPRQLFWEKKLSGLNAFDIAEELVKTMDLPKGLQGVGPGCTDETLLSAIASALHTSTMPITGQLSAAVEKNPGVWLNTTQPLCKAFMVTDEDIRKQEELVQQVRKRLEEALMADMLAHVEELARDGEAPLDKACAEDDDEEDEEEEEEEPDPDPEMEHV
The assay is described as follows: Co-immunoprecipitation of Flag-Mbd3 interacting proteins in 293T cells. It is filed as cell-based. Particulars: Flag-Mbd3 IP. An excerpt: 293T cells were transfected with both with Flag-Mbd3 (WT) and P66a-CC (SEQ ID NO:71; GenBank Accession NO. NM_017660.3) or a control vector (mCherry), Mbd3 15 interacting proteins were pulled down by immunoprecipitation (IP) using Flag-magnetic beads.
The present inventors overexpressed MBD3-WT (SEQ ID NO: 112) and the HA-tagged p66u-CC in 293T cells, and further show in a co-immunoprecipitation for anti-Mbd3 pulldown, that the presence of p66u inhibits MBD3 binding and recruitment to CHD4 (FIG. 93).

PKCδ, sequence (Q05655 whole entry): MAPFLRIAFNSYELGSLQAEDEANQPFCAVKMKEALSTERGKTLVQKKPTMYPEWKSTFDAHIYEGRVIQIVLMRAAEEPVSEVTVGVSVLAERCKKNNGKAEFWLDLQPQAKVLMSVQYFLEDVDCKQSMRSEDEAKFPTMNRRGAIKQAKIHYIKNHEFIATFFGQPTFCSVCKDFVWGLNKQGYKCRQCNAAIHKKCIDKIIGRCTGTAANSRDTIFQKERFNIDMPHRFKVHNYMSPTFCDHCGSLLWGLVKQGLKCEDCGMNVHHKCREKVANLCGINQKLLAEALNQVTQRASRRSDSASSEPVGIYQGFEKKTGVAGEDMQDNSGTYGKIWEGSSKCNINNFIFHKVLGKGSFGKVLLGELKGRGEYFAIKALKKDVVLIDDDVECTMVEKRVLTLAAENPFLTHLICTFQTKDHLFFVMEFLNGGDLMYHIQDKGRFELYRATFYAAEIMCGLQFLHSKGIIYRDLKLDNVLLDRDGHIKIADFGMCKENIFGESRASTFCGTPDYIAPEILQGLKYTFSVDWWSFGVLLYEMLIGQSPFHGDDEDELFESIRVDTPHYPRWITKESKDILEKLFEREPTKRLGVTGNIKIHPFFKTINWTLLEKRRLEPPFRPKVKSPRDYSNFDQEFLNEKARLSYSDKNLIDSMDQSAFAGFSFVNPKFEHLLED
PKCβ, sequence (P05771 whole entry, species assumed): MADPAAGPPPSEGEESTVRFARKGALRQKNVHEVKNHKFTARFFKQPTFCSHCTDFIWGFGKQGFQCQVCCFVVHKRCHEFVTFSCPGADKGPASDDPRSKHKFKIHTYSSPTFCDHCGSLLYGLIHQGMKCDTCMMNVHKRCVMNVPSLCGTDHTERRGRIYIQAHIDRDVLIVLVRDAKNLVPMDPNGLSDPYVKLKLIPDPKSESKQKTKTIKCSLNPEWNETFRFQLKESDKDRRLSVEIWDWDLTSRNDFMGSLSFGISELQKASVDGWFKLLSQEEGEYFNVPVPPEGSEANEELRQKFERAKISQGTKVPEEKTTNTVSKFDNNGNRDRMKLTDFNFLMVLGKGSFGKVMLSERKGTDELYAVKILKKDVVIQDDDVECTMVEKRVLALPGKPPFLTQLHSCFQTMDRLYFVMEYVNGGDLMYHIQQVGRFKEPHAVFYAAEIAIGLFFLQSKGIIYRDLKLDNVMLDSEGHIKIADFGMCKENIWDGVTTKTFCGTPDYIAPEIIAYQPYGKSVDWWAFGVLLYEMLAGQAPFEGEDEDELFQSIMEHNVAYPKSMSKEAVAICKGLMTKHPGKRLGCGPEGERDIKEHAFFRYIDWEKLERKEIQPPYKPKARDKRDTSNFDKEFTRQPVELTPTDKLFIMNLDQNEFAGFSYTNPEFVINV

Turning to `Cc1ccc(-n2nc(C(C)(C)C)cc2NC(=O)Nc2ccc(OCCN3CCOCC3)c3ccccc23)cc1` [BIRB796], the “change in OCT4-GFP expression” value in [1] is “without any change”.

For the molecule `Nc1ncn([C@H]2C[C@H](O)[C@@H](CO)O2)c(=O)n1` [Condition 5d-AZA], the “pluripotency after passaging in presence of inhibitor” value in assay [2] is “retain their pluripotency”.

As to `Nc1nccc2c1ncn2C1C=C(CO)C(O)C1O` (stereo not shown) [DzNEP], in [2], the “pluripotency after passaging in presence of inhibitor” value is on record as “retain their pluripotency”.

Consider `COc1ccc2c(c1)c(C1=C(c3c[nH]c4ccccc34)C(=O)NC1=O)cn2CCCN(C)C` [Go6983], for which the 50% inhibitory concentration (IC50) in [3] was 6 nM; in assay [4] it was 7 nM; in [5], 7 nM; in assay [7], 10 nM; in assay [8] it was 60 nM; in assay [9], 20000 nM. The MBD3 protein levels entry in assay [6] is listed as “significant depletion”; in [6] (listed as PKC inhibitor), “significant reduction”.

`C[C@@H](N)[C@H]1CC[C@H](C(=O)Nc2ccncc2)CC1` [ROCK inhibitor, Y-27632]: the “single cell cloning efficiency” value in [10] was “up to 22%”; in assay [11], “up to 88%”.

For `Oc1ccc(-c2nc(-c3ccncc3)c(-c3ccc(F)cc3)[nH]2)cc1` [SB202190], in assay [1], the “change in OCT4-GFP expression” value was “without any change”.

Regarding `NC(=O)c1ccc(-c2nc(-c3ccc4c(c3)OCO4)c(-c3ccccn3)[nH]2)cc1` [SB431542], in assay [6], the MBD3 protein levels entry was “did not affect”.

Regarding “P66a-CC: P66 alpha coiled-coil domain, SEQ ID NO:114, expressed by transfection (PEERERMIKQLKEELRLEEAKLVLLKKLRQSQIQKEATAQK; (1)..(41) P66 alpha coiled-coil domain; listed as Homo sapiens) [Condition P66a-CC]”, in assay [12], the “Chd4 interaction with Mbd3” value was “specific loss of Chd4 interaction with Mbd3”.

What is called IC50 is the concentration at which inhibition is half-maximal.

The values are drawn from US12570957B2, “Isolated naive pluripotent stem cells and methods of generating same” (Yeda Research and Development Co. Ltd., priority 2013, dated 2026).
